ChEMBL document CHEMBL3627608, “Crystal structures of human RIP2 kinase catalytic domain complexed with ATP-competitive inhibitors: Foundations for understanding inhibitor selectivity” (Bioorg Med Chem, 2015)

Legend:
[1] = molecular target: T1, Serine/threonine-protein kinase NLK (Homo sapiens) (UniProt Q9UBE8); test: Inhibition of NLK (unknown origin) at 10 uM after 120 mins P33 radiolabeled kinase activity assay
T1 sequence (whole entry): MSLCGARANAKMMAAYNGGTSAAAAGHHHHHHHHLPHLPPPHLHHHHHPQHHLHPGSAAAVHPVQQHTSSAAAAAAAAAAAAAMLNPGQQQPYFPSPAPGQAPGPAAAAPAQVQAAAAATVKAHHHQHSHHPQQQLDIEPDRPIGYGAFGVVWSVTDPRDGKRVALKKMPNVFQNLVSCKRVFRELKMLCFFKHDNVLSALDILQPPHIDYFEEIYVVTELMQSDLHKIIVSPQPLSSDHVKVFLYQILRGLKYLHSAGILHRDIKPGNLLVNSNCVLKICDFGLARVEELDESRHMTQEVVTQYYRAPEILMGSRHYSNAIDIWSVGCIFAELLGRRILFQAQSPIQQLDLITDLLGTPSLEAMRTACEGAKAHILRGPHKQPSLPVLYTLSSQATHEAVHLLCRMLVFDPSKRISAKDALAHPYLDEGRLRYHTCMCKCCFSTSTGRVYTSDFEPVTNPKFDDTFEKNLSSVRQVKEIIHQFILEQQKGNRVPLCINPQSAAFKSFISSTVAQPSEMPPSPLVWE

[2] = molecular target: Phosphorylase b kinase gamma catalytic chain, skeletal muscle/heart isoform (Homo sapiens) (UniProt Q16816); test: Inhibition of PHKgamma1 (unknown origin) at 10 uM after 120 mins P33 radiolabeled kinase activity assay
[3] = molecular target: T2, Myosin-IIIb (Homo sapiens) (UniProt Q8WXR4); test: Inhibition of MYO3b (unknown origin) at 10 uM after 120 mins P33 radiolabeled kinase activity assay
T2 sequence (whole entry): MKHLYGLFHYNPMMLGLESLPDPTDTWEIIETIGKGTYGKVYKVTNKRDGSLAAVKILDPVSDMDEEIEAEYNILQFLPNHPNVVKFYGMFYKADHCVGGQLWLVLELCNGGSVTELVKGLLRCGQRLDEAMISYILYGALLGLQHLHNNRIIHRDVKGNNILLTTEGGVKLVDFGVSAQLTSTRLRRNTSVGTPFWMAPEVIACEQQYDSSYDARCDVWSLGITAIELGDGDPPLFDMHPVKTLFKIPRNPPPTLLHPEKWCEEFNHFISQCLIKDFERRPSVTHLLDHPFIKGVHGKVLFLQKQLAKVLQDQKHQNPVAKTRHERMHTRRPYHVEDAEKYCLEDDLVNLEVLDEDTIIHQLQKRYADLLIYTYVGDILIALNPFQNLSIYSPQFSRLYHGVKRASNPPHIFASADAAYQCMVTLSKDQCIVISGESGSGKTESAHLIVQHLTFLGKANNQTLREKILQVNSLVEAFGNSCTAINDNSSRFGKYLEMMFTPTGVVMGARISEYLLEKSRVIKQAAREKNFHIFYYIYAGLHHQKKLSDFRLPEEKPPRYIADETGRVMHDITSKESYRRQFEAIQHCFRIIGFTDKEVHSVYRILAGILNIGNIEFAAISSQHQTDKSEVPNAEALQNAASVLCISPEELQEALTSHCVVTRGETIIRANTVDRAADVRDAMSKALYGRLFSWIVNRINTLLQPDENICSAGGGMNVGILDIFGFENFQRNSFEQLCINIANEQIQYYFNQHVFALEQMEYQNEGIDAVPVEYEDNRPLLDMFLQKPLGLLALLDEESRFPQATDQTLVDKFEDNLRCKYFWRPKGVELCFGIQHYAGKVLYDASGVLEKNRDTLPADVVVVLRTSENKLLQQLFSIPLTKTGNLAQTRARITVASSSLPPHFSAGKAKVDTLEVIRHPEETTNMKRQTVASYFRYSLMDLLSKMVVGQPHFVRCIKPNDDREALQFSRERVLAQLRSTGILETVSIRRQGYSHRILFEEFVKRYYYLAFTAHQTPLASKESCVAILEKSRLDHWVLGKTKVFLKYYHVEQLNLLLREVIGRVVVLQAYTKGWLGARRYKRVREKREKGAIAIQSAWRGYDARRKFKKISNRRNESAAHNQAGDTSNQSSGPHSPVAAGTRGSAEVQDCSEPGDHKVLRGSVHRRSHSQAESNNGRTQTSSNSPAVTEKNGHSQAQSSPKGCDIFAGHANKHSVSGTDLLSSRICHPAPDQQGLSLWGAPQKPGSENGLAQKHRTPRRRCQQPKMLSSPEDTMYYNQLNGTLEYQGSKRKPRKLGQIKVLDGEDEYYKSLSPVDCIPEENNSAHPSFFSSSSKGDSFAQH

[4] = molecular target: Ribosomal protein S6 kinase alpha-2 (Homo sapiens) (UniProt Q15349); test: Inhibition of RSK3 (unknown origin) at 10 uM after 120 mins P33 radiolabeled kinase activity assay
[5] = molecular target: Serine/threonine-protein kinase 32B (Homo sapiens) (UniProt Q9NY57); test: Inhibition of STK32B (unknown origin) at 10 uM after 120 mins P33 radiolabeled kinase activity assay
[6] = molecular target: Calcium/calmodulin-dependent protein kinase type 1 (Homo sapiens) (UniProt Q14012); test: Inhibition of CAMK1alpha (unknown origin) at 10 uM after 120 mins P33 radiolabeled kinase activity assay
[7] = molecular target: T3, Calcium/calmodulin-dependent protein kinase type IV (Homo sapiens) (UniProt Q16566); test: Inhibition of CAMK4 (unknown origin) at 10 uM after 120 mins P33 radiolabeled kinase activity assay
T3 sequence (whole entry): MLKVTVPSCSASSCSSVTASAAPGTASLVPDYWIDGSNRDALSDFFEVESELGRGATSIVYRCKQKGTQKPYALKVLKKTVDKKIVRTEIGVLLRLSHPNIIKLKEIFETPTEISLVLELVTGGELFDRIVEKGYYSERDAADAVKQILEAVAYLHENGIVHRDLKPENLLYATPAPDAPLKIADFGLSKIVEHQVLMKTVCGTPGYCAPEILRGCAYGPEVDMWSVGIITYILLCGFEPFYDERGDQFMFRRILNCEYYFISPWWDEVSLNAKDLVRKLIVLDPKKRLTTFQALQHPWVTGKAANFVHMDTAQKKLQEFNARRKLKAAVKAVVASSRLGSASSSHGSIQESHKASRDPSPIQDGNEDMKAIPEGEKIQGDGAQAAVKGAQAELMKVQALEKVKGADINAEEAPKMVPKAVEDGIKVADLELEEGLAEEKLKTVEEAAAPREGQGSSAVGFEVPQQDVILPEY

Sequence of Serine/threonine-protein kinase 32B (Homo sapiens) (Q9NY57 whole entry): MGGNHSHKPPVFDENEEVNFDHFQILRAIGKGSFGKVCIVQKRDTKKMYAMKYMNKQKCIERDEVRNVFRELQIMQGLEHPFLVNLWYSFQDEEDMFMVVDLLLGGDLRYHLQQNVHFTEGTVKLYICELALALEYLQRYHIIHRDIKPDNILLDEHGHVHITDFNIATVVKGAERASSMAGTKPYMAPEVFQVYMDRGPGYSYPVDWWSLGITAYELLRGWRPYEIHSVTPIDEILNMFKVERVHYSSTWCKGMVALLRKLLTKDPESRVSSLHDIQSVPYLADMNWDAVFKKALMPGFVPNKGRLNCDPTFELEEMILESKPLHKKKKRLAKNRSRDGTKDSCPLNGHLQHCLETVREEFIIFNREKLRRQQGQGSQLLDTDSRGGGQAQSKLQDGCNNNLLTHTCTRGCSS
Sequence of Ribosomal protein S6 kinase alpha-2 (Homo sapiens) (Q15349 whole entry): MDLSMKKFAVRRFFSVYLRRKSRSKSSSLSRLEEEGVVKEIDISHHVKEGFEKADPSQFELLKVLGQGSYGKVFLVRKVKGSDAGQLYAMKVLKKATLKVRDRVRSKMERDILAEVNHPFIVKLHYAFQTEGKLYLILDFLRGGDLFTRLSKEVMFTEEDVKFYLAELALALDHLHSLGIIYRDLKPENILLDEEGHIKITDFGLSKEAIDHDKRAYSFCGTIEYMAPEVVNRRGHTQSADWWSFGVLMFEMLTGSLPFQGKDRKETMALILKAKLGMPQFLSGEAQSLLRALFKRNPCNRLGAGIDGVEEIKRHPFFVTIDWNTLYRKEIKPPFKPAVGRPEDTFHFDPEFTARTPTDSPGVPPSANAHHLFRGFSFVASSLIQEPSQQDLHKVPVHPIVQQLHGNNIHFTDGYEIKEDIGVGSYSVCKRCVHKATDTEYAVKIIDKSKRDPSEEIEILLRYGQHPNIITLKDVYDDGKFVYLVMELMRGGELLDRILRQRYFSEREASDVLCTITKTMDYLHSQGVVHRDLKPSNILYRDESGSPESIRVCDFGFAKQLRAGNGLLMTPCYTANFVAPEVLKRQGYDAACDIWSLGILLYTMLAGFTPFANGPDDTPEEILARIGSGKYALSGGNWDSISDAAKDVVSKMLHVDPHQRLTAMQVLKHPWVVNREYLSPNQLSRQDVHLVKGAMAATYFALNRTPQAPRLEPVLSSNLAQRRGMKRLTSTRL
Sequence of Phosphorylase b kinase gamma catalytic chain, skeletal muscle/heart isoform (Homo sapiens) (Q16816 whole entry, looked up, canonical isoform): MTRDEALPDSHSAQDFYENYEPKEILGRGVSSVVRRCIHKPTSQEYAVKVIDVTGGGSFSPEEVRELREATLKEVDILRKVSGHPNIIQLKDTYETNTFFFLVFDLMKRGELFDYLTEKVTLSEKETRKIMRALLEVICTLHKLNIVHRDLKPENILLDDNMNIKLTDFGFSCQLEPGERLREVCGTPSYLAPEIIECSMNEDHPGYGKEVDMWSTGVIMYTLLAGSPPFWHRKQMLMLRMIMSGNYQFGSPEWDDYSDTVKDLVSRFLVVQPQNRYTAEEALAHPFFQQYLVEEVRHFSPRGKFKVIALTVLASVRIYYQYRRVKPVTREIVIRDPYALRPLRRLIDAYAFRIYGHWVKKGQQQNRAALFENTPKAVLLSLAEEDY
Sequence of Calcium/calmodulin-dependent protein kinase type 1 (Homo sapiens) (Q14012 whole entry, looked up): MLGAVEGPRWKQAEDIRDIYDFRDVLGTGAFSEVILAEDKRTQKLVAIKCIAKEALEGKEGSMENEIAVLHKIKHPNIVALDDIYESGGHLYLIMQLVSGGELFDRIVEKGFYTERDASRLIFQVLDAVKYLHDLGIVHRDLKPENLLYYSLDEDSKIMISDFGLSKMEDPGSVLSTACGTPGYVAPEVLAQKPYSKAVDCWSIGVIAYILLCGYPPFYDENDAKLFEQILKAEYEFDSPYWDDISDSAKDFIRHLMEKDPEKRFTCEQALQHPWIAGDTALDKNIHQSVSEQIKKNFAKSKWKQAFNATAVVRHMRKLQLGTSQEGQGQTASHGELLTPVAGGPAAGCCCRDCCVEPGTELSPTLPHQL

| inhibition [1] | inhibition [2] | inhibition [3] | inhibition [4] | inhibition [5] | inhibition [6] | inhibition [7] | Structure (SMILES) |
| --- | --- | --- | --- | --- | --- | --- | --- |
| 88.6% | 8.44% | 71.7% | 67.5% | 24.6% | 96.3% | 29.4% | CS(=O)(=O)c1cccc(Nc2nccc(-c3sc(N4CCOCC4)nc3-c3cccc(NS(=O)(=O)c4c(F)cccc4F)c3)n2)c1 |
| 55.2% | 10.5% | 2.38% | 11.2% | -6.19% | 2.42% | 6.98% | COCCNC(=O)c1ccc2c(c1)nc(-c1cnc(-c3ccc(Cl)cc3)[nH]1)n2CCOC |
| 51.5% | 55.9% | 92.5% | 53.4% | 9.05% | 15% | 15.2% | CC(C)(C)c1cc(NC(=O)Nc2ccc(Oc3ccncc3)cc2)no1 |
